Reference: US20070141067A1, “TARGETED CANCER THERAPY” (MAYO MEDICAL VENTURES, priority 2004, published 2007)

Test system: HeLa cells
Experiment: siRNA pretreatment with or without low dose doxorubicin, HeLa cell survival (drug sensitization)
Assay type: cell-based
Conditions: 50 fold lower than the LD90, dose response experiment
Description: FIG. 6A is a graph illustrating percent cell survival following treatment with a gene-specific siRNA, with or without a low dose drug. Seventy-six test siRNAs (2 or 3 siRNAs per gene plus 6 control siRNAs), targeting 29 novel candidate genes, were transfected into HeLa cells.
FIG. 6B is an enlarged section of the graph in FIG. 6A.
FIG. 6C is a graph of the same data of FIG. 6A plotted as a percentage increase in sensitivity relative to the untreated sample.
An analysis was conducted by a similar method as described in FIG. 4, with two main differences. First, a different set of siRNAs were used. The siRNAs targeted 29 novel candidate genes that were previously identified by cDNA microarray and CGH analysis to be overexpressed and amplified in 14 breast cancer cell lines (Hyman et al., Cancer Res. 62:6240-5, 2002). There were 76 test siRNAs (2 or 3 siRNA per gene plus 6 control siRNAs). The second difference in this study was that the number of experiments was doubled to include a low dose doxorubicin (“Dox”) treatment. Four replicates of the no-drug control, and four replicates of the low dose drug were prepared for a total of 8 wells treated with each siRNA. The HeLa cells were transfected with siRNA as described above, and the cells were allowed to incubate for 24 hours to achieve silencing of the targeted genes. […]

`COc1cccc2c1C(=O)c1c(O)c3c(c(O)c1C2=O)C[C@@](O)(C(=O)CO)C[C@@H]3O[C@H]1C[C@H](N)[C@H](O)[C@H](C)O1` [Dox, doxorubicin] was tested, and the “effect of low dose Dox on HeLa cell survival” value was “no effect”.
